Measured values: patent US6365195B2, “Fungicidal active compound combinations” (Bayer Aktiengesellschaft, priority 1993, dated 2002)

Key:
Type in all cases: in vivo
Botrytis cinerea = test: Botrytis test (bean)/protective; settings: protective, 3 days after inoculation
Experimental: After the spray coating has dried on, 2 small pieces-of agar covered with Botrytis cinerea are placed on each leaf. The inoculated plants are placed in a darkened humid chamber at 20° C.
3 days after the inoculation, the size of the infected spots on the leaves is evaluated.

Leptosphaeria nodorum [1] = test: Leptosphaeria nodorum test (wheat)/protective; settings: protective, 10 days after inoculation
Experimental: Solvent: 100 parts by weight of dimethylformamide
Emulsifier: 0.25 parts by weight of alkylaryl polyglycol ether
(§1) To produce a suitable preparation of active compound, 1-part by weight of active compound is mixed with the stated amounts of solvent and emulsifier, and the concentrate is diluted with water to the desired concentration.
(§2) To test for protective activity, young plants are sprayed with the preparation of active compound until dew-moist. After the spray coating has dried on, the plants are sprayed with a spore suspension of Leptosphaeria nodorum. The plants remain for 48 hours in an incubation cabin at 20° C. and 100% relative atmospheric humidity.
(§3) The plants are placed in a greenhouse at a temperature of 15° C. and a relative atmospheric humidity of about 80%.
(§4) Evaluation is effected 10 days after the inoculation.

[2] = system: Erysiphe graminis f.sp.hordei; test: Erysiphe-test (wheat)/curative; settings: curative, 200 g/ha, 7 days after inoculation
Experimental: Solvent: 10 parts by weight of N-methyl-pyrrolidone Emulsifier: 0.6 parts by weight of alkylaryl-polglycolether To produce a suitable preparation of active compound, 1-part by weight of active compound is mixed with the stated amounts of solvent and emulsifier, and the concentrate is diluted with water to the desired concentration. To test for curative activity, young plants are dusted with spores of Erysiphe graminis f.sp.hordei. 48 hours after the inoculation, the plants are sprayed with the preparation of active compound until dew-moist. The plants are placed in a greenhouse at a temperature of about 20° C. and a relative atmospheric humidity of about 80%, in order to promote the development of powdery mildew pustules. Evaluation is carried out 7 days after the inoculation.

Pyrenophora teres = Pyrenophora teres test (barley)/protective; settings: protective, 25 g/ha, 7 days after inoculation
Experimental: (§5) Solvent: 10 parts by weight N-methyl-pyrrolidon
(§6) Emulsifier: 0.6 parts by weight alkylarylpoly-glycolether
as §1
To test for protective activity, young plants are sprayed with the preparation of active compound until dew moist. After the spray coating has dried off, the plants are sprayed with a conidia suspension of Pyrenophora teres. The plants then remain in an incubation cabin at 20° C. and 100% relative atmospheric humidity for 48 hours.
The plants are placed in a greenhouse at a temperature of about 20° C. and a relative atmospheric humidity of about […].
Evaluation is carried out 7 days after inoculation.

[3] = system: Erysiphe graminis f. sp. hordei; test: Erysiphe test (wheat) protective; settings: 7 days after inoculation
Experimental: Solvent: 10 parts by weight N-methyl-pyrrolidone
as §6, §1
To test for protective activity, young plants are dusted with spores of Erysiphe graminis f. sp. hordei. […]
The plants are placed in a greenhouse at a temperature of about 20° C. and a relative atmospheric humidity of about 80%, in order to promote the development of powdery mildew pustules.
(§7) Evaluation is carried out 7 days after the inoculation.

[4] = system: Erysiphe graminis f.sp. hordei; test: Erysiphe test (barley)/protective; settings: protective, 50 g/ha, 7 days after inoculation
Experimental: as §5, §6
To produce a suitable preparation of active compound, 1 part by weight of active compound is mixed with the stated amounts of solvent and emulsifier, and the concentrate is diluted with water to the desired concentration.
To test for protective activity, young plants are sprayed with the preparation of active compound until dew-moist. After the spray coating has dried on, the plants are dusted with spores of Erysiphe graminis f.sp. hordei.
The plants are placed in a greenhouse at a temperature of about 20° C. and a relative atmospheric humidty of about 80%, in order to promote the development of powdery mildew pustules.
as §7

Leptosphaeria nodorum [5] = test: Leptosphaeria nodorum test (wheat)/curative; settings: curative, 400 g/ha, 10 days after inoculation
Experimental: Solvent: 10 parts by weight of dimethyl-formamide
Emulsifier: 0.6 parts by weight of alkylaryl polyglycol ether
To produce a suitable preparation of active compound, 1-parts by weight of active compound is mixed with the stated amounts of solvent and emulsifier, and the concentrate is diluted with water to the desired concentration.
as §2, with “curative” for “protective”
as §3, §4

With `Cc1cc(C)nc(Nc2ccccc2)n1` [Pyrimethanil, pyrimethanil] the “Degree of effectiveness in % of the untreated control” value (Botrytis cinerea; 10 ppm) was 0%.

With `COC(=O)Nc1nc2ccccc2[nH]1` [Carbendazim, methyl benzimidazole-2-carbamate] the “Degree of effectiveness in % of the untreated control” value (Botrytis cinerea; 5 ppm) was 52%.

With `CC1(C(=O)Nc2ccc(O)c(Cl)c2Cl)CCCCC1` [(I)] the “Degree of effectiveness in % of the untreated control” value (Leptosphaeria nodorum [1]; concentration not given) was 0%, the “Degree of effectiveness in % of the untreated control” value [2] was 30% and the “Degree of effectiveness in % of the untreated control” value (Botrytis cinerea; 5 ppm) was 51%. The “Degree of effectiveness in % of the untreated control” value (Pyrenophora teres) was 33%, the “Degree of effectiveness in % of the untreated control” value ([3]; 25 g/ha) was 30% and the “Degree of effectiveness in % of the untreated control” value ([3]; 200 g/ha) was 85%. The “Degree of effectiveness in % of the untreated control” value [4] was 0% and the “Degree of activity in % of the untreated control” value (Leptosphaeria nodorum [5]) was 25%.

In the case of `O=[N+]([O-])c1cc(C(F)(F)F)c(Cl)c([N+](=O)[O-])c1Nc1ncc(C(F)(F)F)cc1Cl` [Fluazinam, fluazinam], the “Degree of effectiveness in % of the untreated control” value (Botrytis cinerea; 5 ppm) is reported as 20%.

In the case of `CO/C=C(\C(=O)OC)c1ccccc1Oc1cc(Oc2ccccc2C#N)ncn1` [(ηb)], the “Degree of effectiveness in % of the untreated control” value [2] is reported as 75%.

For `O=C1c2ccccc2C(=O)N1SC(Cl)(Cl)Cl` [Phaltan, phaltan], the “Degree of effectiveness in % of the untreated control” value (Botrytis cinerea; 50 ppm) was 0%.

`CN(C)S(=O)(=O)N(SC(F)(Cl)Cl)c1ccccc1` [Dichlofluanid, dichlofluanid] was tested, and the “Degree of effectiveness in % of the untreated control” value (Botrytis cinerea; 100 ppm) was 32%.

For `N#Cc1c(Cl)c(Cl)c(Cl)c(C#N)c1Cl` [Chlorothalonil, tetrachloro-isophthalo-dinitrile], the “Degree of effectiveness in % of the untreated control” value (Botrytis cinerea; 200 ppm) was 37%.

In the case of `Cc1ccc(N(SC(F)(Cl)Cl)S(=O)(=O)N(C)C)cc1` [Tolylfluanid, tolylfluanid], the “Degree of effectiveness in % of the untreated control” value (Botrytis cinerea; 50 ppm) is reported as 32%.

With `CC(C)(C)C(O)(CCc1ccc(Cl)cc1)Cn1cncn1` (stereo not drawn) [Tebuconazole] the “Degree of effectiveness in % of the untreated control” value (Leptosphaeria nodorum [1]; spray liquor 25 ppm) was 75%.

In the case of `CC12CC1(C)C(=O)N(c1cc(Cl)cc(Cl)c1)C2=O` (stereo not drawn) [Procymidone, procymidone], the “Degree of effectiveness in % of the untreated control” value (Botrytis cinerea; 50 ppm) is reported as 44%.

With `CO/N=C(\C(=O)OC)c1ccccc1COc1ccccc1C` [(ηb)] the “Degree of effectiveness in % of the untreated control” value (Pyrenophora teres) was 33%, the “Degree of effectiveness in % of the untreated control” value ([3]; 25 g/ha) was 85% and the “Degree of effectiveness in % of the untreated control” value [4] was 85%. For the same compound, the “Degree of activity in % of the untreated control” value (Leptosphaeria nodorum [5]) was 49%.

In the case of `CO/C=C(\C(=O)OC)c1ccccc1Oc1cc(Oc2ccccc2C#N)ncn1` [(ηa)], the “Degree of effectiveness in % of the untreated control” value ([3]; 200 g/ha) is reported as 79% and the “Degree of effectiveness in % of the untreated control” value [4] is reported as 15%.
